The test system of experiment [1] is Streptococcus sp. 'group A'. The experiment is described as follows: Streptococcus pyogenes SK(-)GAS viability under kanamycin – luminescence, BacTiterGlo, confirmation, counter-screen for streptokinase expression inhibitor project, dose response (AID 1900). The format is functional, organism-based. (A counterscreen serves to expose hits that act by an unwanted route or on another target.)

Experiment [2] deals with BJ. The experiment is described as follows: BJ-TERT fibroblast viability loss – cell-based, RAS-independent, luminescence, dose response (AID 1933). Type of experiment: functional. The following applies: Homo sapiens.
A further experiment addresses Beta-galactosidase (Escherichia coli, UniProt Q8VNN2). The experiment is described as follows: PubChem AID 485352. The format is functional.
The target of the next experiment is T1, Streptokinase A (Streptococcus pyogenes serotype M1, UniProt P10520).
T1 sequence (P10520 whole entry): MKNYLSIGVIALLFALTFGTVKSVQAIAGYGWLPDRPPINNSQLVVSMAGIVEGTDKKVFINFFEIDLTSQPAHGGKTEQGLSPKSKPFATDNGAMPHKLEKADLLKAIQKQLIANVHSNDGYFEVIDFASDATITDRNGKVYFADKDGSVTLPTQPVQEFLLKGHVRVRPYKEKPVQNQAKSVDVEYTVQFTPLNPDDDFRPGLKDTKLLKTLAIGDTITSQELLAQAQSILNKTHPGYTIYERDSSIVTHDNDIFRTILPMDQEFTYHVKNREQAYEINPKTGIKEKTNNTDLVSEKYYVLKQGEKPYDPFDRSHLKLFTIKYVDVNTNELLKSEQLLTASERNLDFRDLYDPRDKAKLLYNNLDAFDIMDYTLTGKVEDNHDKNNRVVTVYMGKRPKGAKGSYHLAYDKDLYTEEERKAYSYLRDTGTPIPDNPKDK
Briefly: viability-normalized secreted streptokinase activity reduction – plasminogen activation absorbance, OD405, dose response (AID 1914).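 Also: secreted streptokinase activity via plasminogen activation per viability signal from cell pellet.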 The format is functional, Streptococcus pyogenes M1 GAS.

Experiment [3] has as its system BJ. The experiment is described as follows: cells. Type of experiment: functional, cell-based. Particulars: Homo sapiens.
In the next experiment the target is Large T antigen (Simian virus 40, UniProt P03070). The format is functional, Betapolyomavirus macacae.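 Also: Confirmatory-stage PubChem screen for compounds that inhibit SV40 T antigen.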
The nature of experiment [4]: Trypanosoma cruzi growth suppression in host cells – NIH3T3 host cells, beta-gal luminescence, confirmation (AID 2044).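 Also: intracellular parasites grown in NIH/3T3 mouse fibroblasts as host cells; luminescent beta-galactosidase reporter signal from transgenic T. cruzi replicating inside host cells; inhibitors lower the luminescence signal.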 Type of experiment: functional, cell-based.
Experiment [5] concerns the target T2, Type-1 angiotensin II receptor (Homo sapiens, UniProt P30556).
T2 sequence (P30556 whole entry): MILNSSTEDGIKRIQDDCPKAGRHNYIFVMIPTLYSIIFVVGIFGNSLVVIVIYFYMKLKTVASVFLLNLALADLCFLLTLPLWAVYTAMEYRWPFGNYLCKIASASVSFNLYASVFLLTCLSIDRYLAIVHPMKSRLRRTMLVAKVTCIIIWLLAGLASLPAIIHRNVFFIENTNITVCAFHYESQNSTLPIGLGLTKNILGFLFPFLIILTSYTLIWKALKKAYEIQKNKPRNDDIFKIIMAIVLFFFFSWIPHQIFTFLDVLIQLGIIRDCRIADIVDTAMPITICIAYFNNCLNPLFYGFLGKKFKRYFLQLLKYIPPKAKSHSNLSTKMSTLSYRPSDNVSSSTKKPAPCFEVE
The experiment is described as follows: antagonism of angiotensin II type 1 receptor – cell-based, uHTS hits, selectivity assay for APJ receptor antagonist project, dose response (AID 463214).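 Also: antagonist potency against angiotensin II stimulated AT1 response.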 The format is functional.

A short description of experiment [6]: NIH3T3 cell viability loss – ATP luminescence, mouse fibroblasts, counter-screen, dose response (AID 2010).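 Also: cells exposed to compound for about 90 hours before reading.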 Type of experiment: functional, cell-based.
Experiment [7] relates to BJ. Briefly: BJ-TERT-LT-ST fibroblast viability loss – cell-based, RAS-independent, luminescence, dose response (AID 1935).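 Also: BJ fibroblasts immortalized with TERT plus LT and ST oncogenes.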 The format is functional. The following applies: Homo sapiens.
The nature of experiment [8]: DRD fibroblast viability loss – cell-based, non-viral oncogenic, luminescence, dose response (AID 1934). The format is functional. The following applies: Homo sapiens.
The subject of another experiment is Streptococcus. The experiment is described as follows: GAS UMAA2166 growth inhibition – luminescence, BacTiterGlo, counter-screen for streptokinase expression inhibitor project, dose response (AID 1915).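 Also: potency for reduction of bacterial viability or growth.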 Type of experiment: functional, organism-based.
For experiment [9], the target named is T3, Heat shock factor protein 1 (Mus musculus, UniProt P38532).
T3 sequence (P38532 whole entry): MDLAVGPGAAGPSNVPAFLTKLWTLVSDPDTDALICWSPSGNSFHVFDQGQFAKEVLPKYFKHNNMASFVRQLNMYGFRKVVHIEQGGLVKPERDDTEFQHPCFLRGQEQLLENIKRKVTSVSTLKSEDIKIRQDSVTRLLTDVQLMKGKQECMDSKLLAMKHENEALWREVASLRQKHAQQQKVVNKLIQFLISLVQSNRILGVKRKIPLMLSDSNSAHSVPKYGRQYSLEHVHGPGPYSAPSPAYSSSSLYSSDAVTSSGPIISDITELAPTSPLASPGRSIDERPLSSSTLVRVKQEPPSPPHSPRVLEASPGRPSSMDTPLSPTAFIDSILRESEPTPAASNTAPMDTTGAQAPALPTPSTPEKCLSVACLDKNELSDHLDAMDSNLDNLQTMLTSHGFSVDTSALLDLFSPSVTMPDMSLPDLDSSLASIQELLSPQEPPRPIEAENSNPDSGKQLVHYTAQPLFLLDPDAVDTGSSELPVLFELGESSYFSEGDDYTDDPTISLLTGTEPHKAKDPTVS
The experiment is described as follows: enhancement of HSF1-driven luciferase signal – cell-based, NIH3T3, luminescence, dose retest, confirmation (AID 435004).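 Also: stress induced by proteasome inhibitor MG132 added 30 min after compound; luciferase reporter driven by HSF1 response element in NIH3T3 cells; actives raise luminescence as potentiators of the MG132 stress response.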 The format is functional.

A further experiment concerns CHO. Briefly: CHO cell viability loss, potency – luminescence, cytotoxicity control for TLR9-MyD88 binding inhibitor project, dose response (AID 588339).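 Also: CHO cells stably coexpressing TLR9 and MyD88 fusions from primary screen; compound exposure lasted 48 hours before viability readout.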 Type of experiment: functional, cell-based, hamster. Particulars: Cricetulus griseus.
Experiment [10] concerns the target T4, High affinity choline transporter 1 (Homo sapiens, UniProt Q9GZV3).
T4 sequence (Q9GZV3 whole entry): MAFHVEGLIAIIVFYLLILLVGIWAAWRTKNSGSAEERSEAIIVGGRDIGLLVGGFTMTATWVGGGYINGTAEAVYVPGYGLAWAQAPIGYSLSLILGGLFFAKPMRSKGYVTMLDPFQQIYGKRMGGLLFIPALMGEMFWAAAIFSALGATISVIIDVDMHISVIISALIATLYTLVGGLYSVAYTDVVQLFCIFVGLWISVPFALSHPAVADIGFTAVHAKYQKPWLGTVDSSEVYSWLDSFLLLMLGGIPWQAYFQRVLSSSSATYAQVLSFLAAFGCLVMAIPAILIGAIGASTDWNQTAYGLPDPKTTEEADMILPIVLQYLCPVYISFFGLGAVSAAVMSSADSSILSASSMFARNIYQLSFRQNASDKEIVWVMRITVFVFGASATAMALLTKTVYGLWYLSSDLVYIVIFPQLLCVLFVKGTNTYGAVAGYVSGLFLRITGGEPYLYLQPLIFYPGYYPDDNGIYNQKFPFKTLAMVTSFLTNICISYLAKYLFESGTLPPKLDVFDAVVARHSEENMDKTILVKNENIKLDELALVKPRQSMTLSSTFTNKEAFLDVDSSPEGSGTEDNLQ
Briefly: human choline transporter blockers, potency – cell-based, 5-point CRC, membrane potential dye, dose response (AID 504840). Type of experiment: functional.

The target of another experiment is Beta Lactamase (Pseudomonas aeruginosa, UniProt Q932Y6). The experiment is described as follows: BLA reporter interference, concentration series – BLA reporter cells, FRET fluorescence, artefact control for TLR9-MyD88 binding inhibitor project, dose response (AID 588341).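 Also: cell based assay in CHO-K1 cells stably expressing beta-lactamase.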 Type of experiment: cell-based.
Experiment [11] has as its target T4, High affinity choline transporter 1. Briefly: human choline transporter blockers, potency – cell-based, 10-point CRC, membrane potential dye, dose response (AID 588401).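 Also: membrane potential dye fluorescence of choline-evoked depolarization via CHT.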 The format is functional.
Experiment [12] in a line: Fluorescence-based cell-based high throughput dose response assay for inhibitors of the interaction of nucleotide-binding oligomerization domain containing 2 (NOD2) and the receptor-interacting serine-threonine kinase 2 (RIPK2). Type of experiment: functional. The following applies: Homo sapiens.

Active and inactive are the calls of the source. Rule as the data show it, for most assays here: actives have a measured EC50 and inactives only a lower limit.

Sequence of Beta Lactamase (Q932Y6 whole entry): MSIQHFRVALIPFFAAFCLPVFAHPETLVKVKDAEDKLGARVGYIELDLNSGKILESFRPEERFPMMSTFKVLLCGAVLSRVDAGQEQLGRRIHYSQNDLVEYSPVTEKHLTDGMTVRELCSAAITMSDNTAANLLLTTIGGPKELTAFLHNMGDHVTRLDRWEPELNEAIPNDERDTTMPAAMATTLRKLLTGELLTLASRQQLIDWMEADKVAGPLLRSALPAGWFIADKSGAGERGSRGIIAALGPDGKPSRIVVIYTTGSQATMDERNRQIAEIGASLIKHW
Sequence of Large T antigen (P03070 whole entry): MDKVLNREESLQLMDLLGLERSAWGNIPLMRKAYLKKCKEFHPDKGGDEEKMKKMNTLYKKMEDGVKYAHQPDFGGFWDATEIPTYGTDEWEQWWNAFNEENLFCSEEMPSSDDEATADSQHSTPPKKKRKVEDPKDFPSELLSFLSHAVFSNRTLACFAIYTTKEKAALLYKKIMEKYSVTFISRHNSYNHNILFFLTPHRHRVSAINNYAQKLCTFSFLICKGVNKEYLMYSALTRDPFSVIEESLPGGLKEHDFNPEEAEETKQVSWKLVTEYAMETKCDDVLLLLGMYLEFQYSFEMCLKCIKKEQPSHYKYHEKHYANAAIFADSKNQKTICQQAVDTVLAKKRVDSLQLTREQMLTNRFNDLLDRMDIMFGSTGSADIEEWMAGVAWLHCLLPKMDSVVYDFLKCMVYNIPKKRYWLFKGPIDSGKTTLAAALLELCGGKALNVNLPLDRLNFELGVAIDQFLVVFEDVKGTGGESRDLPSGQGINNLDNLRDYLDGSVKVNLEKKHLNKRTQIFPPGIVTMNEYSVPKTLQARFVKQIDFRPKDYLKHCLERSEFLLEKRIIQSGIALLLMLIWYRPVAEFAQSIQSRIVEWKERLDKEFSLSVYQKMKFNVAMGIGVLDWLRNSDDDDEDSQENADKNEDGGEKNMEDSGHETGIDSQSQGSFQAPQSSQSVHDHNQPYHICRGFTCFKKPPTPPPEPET
Sequence of Beta-galactosidase (Q8VNN2 whole entry): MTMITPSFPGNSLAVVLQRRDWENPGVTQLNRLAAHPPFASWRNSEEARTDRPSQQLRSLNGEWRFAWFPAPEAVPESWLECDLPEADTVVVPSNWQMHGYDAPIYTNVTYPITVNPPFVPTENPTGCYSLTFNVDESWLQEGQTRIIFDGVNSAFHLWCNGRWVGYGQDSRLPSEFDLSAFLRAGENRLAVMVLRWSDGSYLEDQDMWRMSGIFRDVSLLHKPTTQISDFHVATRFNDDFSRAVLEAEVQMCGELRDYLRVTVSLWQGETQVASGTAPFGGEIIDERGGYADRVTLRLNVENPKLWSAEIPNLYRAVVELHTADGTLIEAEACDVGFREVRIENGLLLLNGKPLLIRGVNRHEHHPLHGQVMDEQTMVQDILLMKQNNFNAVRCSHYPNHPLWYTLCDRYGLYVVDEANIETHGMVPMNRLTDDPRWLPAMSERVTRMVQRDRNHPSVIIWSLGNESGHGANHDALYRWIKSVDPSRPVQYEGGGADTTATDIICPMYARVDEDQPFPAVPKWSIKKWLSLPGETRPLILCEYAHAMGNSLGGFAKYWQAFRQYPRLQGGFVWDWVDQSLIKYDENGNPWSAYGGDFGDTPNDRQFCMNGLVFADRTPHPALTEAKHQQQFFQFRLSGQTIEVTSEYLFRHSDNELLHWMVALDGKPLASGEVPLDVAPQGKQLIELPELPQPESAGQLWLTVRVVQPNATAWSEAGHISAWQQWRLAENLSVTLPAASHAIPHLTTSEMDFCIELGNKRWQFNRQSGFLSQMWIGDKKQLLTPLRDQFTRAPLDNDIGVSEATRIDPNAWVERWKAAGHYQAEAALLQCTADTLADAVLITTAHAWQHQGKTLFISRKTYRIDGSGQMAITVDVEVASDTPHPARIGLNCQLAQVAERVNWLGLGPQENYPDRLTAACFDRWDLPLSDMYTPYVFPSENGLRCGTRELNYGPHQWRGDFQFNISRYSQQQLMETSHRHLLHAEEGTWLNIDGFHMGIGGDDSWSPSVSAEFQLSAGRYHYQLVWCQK

Usually EC50 stands for the midpoint of the concentration-response curve. In general, IC50 refers to the concentration that gives 50% inhibition. Take `CCn1nc(C)cc1-c1nnc(Sc2ncc([N+](=O)[O-])s2)n1C`: the EC50 in experiment [1] was 7.07 µM (active); with BJ [2] it was 2.09 µM (active); on Beta-galactosidase, > 40 µM (inactive); at Streptokinase A, > 150 µM (not active); in the experiment on BJ [3], 7.27 µM (active); in experiment [4], 0.759 µM (active). For the same compound, the EC50 in experiment [6] was 3.07 µM (active); in the experiment with BJ [7] it was 3.46 µM (inconclusive); in experiment [8], 5.37 µM (active); with Streptococcus, 12.4 µM (active); in experiment [9], 2.9 µM (inconclusive). In addition, the IC50 at Large T antigen was 17.6 µM (active); in experiment [5], 5.36 µM (active); in the experiment with CHO, 1.08 µM (active); in experiment [10], 8.13 µM (active); at Beta Lactamase it was 46 µM (inactive); in experiment [11], 3.76 µM (active). In addition, the IC50 in experiment [12] was 0.802 µM (active).
